From US10167262B2, “Herbicidal substituted 3-arylpyrazoles” (FMC CORPORATION, priority 2014, dated 2019)

Key:
Experiment in all cases: Test E pre-/postemergence greenhouse test, plant response rating 0-100
Format in all cases: in vivo
[1] = test system: Brazilian crabgrass (Digitaria horizontalis); settings: scale 0 to 100; for Crabgrass, Brazil plant response rating: Preemergence
How it was run: (§1)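 Each species was tested both preemergence, with chemicals sprayed onto freshly planted silt loam, and postemergence, on plants 2 to 18 cm tall in a peat-based medium; the vehicle was a non-phytotoxic solvent mixture with surfactant. After 14 to 21 days in the greenhouse, growth was visually compared with controls and scored 0–100.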

[2] = test system: arrowleaf sida (Sida rhombifolia); settings: scale 0 to 100; for pest or weed control at 16 g/ha: 16 g ai/ha; for pest or weed control at 31 g/ha: 31 g ai/ha; for Arrowleaf Sida plant response rating: Preemergence
How it was run: as §1

[3] = test system: barnyardgrass (Echinochloa crus-galli); settings: scale 0 to 100; for Barnyardgrass plant response rating: Preemergence
How it was run: as §1

[4] = test system: corn (Zea mays); settings: scale 0 to 100; for Corn plant response rating: Preemergence
How it was run: as §1

[5] = test system: fall panicum (Panicum dichotomiflorum); settings: scale 0 to 100; for Panicum, Fall plant response rating: Preemergence
How it was run: as §1

[6] = test system: hairy beggarticks (Bidens pilosa); settings: scale 0 to 100; for pest or weed control at 16 g/ha: 16 g ai/ha; for Beggarticks plant response rating: Preemergence
How it was run: as §1

[7] = test system: palmer pigweed (Amaranthus palmeri); settings: scale 0 to 100; for Pigweed, Palmer plant response rating: Preemergence
How it was run: as §1

[8] = test system: sandbur (southern sandbur, Cenchrus echinatus); settings: scale 0 to 100; for Sandbur plant response rating: Preemergence
How it was run: as §1

[9] = test system: soybean (Glycine max); settings: scale 0 to 100; for Soybean plant response rating: Preemergence
How it was run: as §1

[10] = test system: waterhemp (common waterhemp, Amaranthus rudis); settings: scale 0 to 100; for pest or weed control at 31 g/ha: 31 g ai/ha; for Waterhemp plant response rating: Preemergence
How it was run: as §1

[11] = test system: wild poinsettia (Euphorbia heterophylla); settings: scale 0 to 100; for Poinsettia, Wild plant response rating: Preemergence
How it was run: as §1

[12] = Sida rhombifolia, post-emergence, Postemergence
[13] = Sida rhombifolia, post-emergence, Postemergence, 62 g ai/ha
[14] = Sida rhombifolia, post-emergence, Postemergence, 125 g ai/ha
[15] = Bidens pilosa, post-emergence, Postemergence
[16] = Bidens pilosa, post-emergence, Postemergence, 125 g ai/ha
[17] = Amaranthus palmeri, post-emergence, Postemergence, 62 g ai/ha
[18] = Amaranthus palmeri, post-emergence, Postemergence, 125 g ai/ha
[19] = Amaranthus tuberculatus, post-emergence, Postemergence
[20] = Amaranthus tuberculatus, post-emergence, Postemergence, 125 g ai/ha

Clc1cc(Cl)cc(-c2n[nH]cc2C(=NN2CCCC2)c2ccccc2)c1 [Compound 30, N-[[3-(3,5-dichlorophenyl)-1H-pyrazol-4-yl]phenylmethylene]-1-pyrrolidinamine]
pest or weed control at 16 g/ha ([1]; Digitaria horizontalis, post-emergence, Postemergence, 16 g ai/ha, read-out: Plant response rating, Crabgrass, Brazil): 0%
pest or weed control at 31 g/ha ([1]; Digitaria horizontalis, post-emergence, Postemergence, 31 g ai/ha, read-out: Plant response rating, Crabgrass, Brazil): 0%
pest or weed control at 62 g/ha ([1]; Digitaria horizontalis, post-emergence, Postemergence, 62 g ai/ha, read-out: Plant response rating, Crabgrass, Brazil): 0%
pest or weed control at 125 g/ha ([1]; Digitaria horizontalis, post-emergence, Postemergence, 125 g ai/ha, read-out: Plant response rating, Crabgrass, Brazil): 0%
pest or weed control at 250 g/ha ([1]; Digitaria horizontalis, post-emergence, Postemergence, 250 g ai/ha, read-out: Plant response rating, Crabgrass, Brazil): 0%
pest or weed control at 16 g/ha [2, 12]: 50%
pest or weed control at 31 g/ha [2, 12]: 50%
pest or weed control at 62 g/ha [2, 13]: 70%
pest or weed control at 125 g/ha [2, 14]: 80%
pest or weed control at 250 g/ha ([2]; Sida rhombifolia, post-emergence, Postemergence, 250 g ai/ha): 80%
pest or weed control at 16 g/ha ([3]; Echinochloa crus-galli, post-emergence, Postemergence, 16 g ai/ha): 0%
pest or weed control at 31 g/ha ([3]; Echinochloa crus-galli, post-emergence, Postemergence, 31 g ai/ha): 0%
pest or weed control at 62 g/ha ([3]; Echinochloa crus-galli, post-emergence, Postemergence, 62 g ai/ha): 0%
pest or weed control at 125 g/ha ([3]; Echinochloa crus-galli, post-emergence, Postemergence, 125 g ai/ha): 0%
pest or weed control at 250 g/ha ([3]; Echinochloa crus-galli, post-emergence, Postemergence, 250 g ai/ha): 0%
Corn plant response rating (crop injury, 0 = no effect, 100 = complete kill) at 16 g/ha ([4]; Zea mays, post-emergence, Postemergence, 16 g ai/ha): 0%
Corn plant response rating (crop injury, 0 = no effect, 100 = complete kill) at 31 g/ha ([4]; Zea mays, post-emergence, Postemergence, 31 g ai/ha): 0%
Corn plant response rating (crop injury, 0 = no effect, 100 = complete kill) at 62 g/ha ([4]; Zea mays, post-emergence, Postemergence, 62 g ai/ha): 0%
Corn plant response rating (crop injury, 0 = no effect, 100 = complete kill) at 125 g/ha ([4]; Zea mays, post-emergence, Postemergence, 125 g ai/ha): 0%
Corn plant response rating (crop injury, 0 = no effect, 100 = complete kill) at 250 g/ha ([4]; Zea mays, post-emergence, Postemergence, 250 g ai/ha): 0%
pest or weed control at 31 g/ha ([5]; Panicum dichotomiflorum, post-emergence, Postemergence, 31 g ai/ha): 0%
pest or weed control at 62 g/ha ([5]; Panicum dichotomiflorum, post-emergence, Postemergence, 62 g ai/ha): 0%
pest or weed control at 125 g/ha ([5]; Panicum dichotomiflorum, post-emergence, Postemergence, 125 g ai/ha): 0%
pest or weed control at 250 g/ha ([5]; Panicum dichotomiflorum, post-emergence, Postemergence, 250 g ai/ha): 0%
pest or weed control at 16 g/ha [6, 15]: 80%
pest or weed control at 125 g/ha [6, 16]: 85%
pest or weed control at 250 g/ha ([6]; Bidens pilosa, post-emergence, Postemergence, 250 g ai/ha): 100%
pest or weed control at 31 g/ha ([7]; Amaranthus palmeri, post-emergence, Postemergence, 31 g ai/ha): 40%
pest or weed control at 62 g/ha [7, 17]: 100%
pest or weed control at 125 g/ha [7, 18]: 100%
pest or weed control at 250 g/ha ([7]; Amaranthus palmeri, post-emergence, Postemergence, 250 g ai/ha): 100%
pest or weed control at 31 g/ha ([8]; Cenchrus echinatus, post-emergence, Postemergence, 31 g ai/ha): 0%
pest or weed control at 62 g/ha ([8]; Cenchrus echinatus, post-emergence, Postemergence, 62 g ai/ha): 0%
pest or weed control at 125 g/ha ([8]; Cenchrus echinatus, post-emergence, Postemergence, 125 g ai/ha): 0%
pest or weed control at 250 g/ha ([8]; Cenchrus echinatus, post-emergence, Postemergence, 250 g ai/ha): 0%
plant injury at 31 g/ha ([9]; Glycine max, post-emergence, Postemergence, 31 g ai/ha): 0%
plant injury at 62 g/ha ([9]; Glycine max, post-emergence, Postemergence, 62 g ai/ha): 0%
plant injury at 125 g/ha ([9]; Glycine max, post-emergence, Postemergence, 125 g ai/ha): 0%
plant injury at 250 g/ha ([9]; Glycine max, post-emergence, Postemergence, 250 g ai/ha): 0%
pest or weed control at 31 g/ha [10, 19]: 60%
pest or weed control at 62 g/ha ([10]; Amaranthus tuberculatus, post-emergence, Postemergence, 62 g ai/ha): 70%
pest or weed control at 125 g/ha [10, 20]: 70%
pest or weed control at 250 g/ha ([10]; Amaranthus tuberculatus, post-emergence, Postemergence, 250 g ai/ha): 75%
pest or weed control at 31 g/ha ([11]; Euphorbia heterophylla, post-emergence, Postemergence, 31 g ai/ha, read-out: Plant response rating, Poinsettia, Wild): 0%
pest or weed control at 62 g/ha ([11]; Euphorbia heterophylla, post-emergence, Postemergence, 62 g ai/ha, read-out: Plant response rating, Poinsettia, Wild): 0%
pest or weed control at 125 g/ha ([11]; Euphorbia heterophylla, post-emergence, Postemergence, 125 g ai/ha, read-out: Plant response rating, Poinsettia, Wild): 0%
pest or weed control at 250 g/ha ([11]; Euphorbia heterophylla, post-emergence, Postemergence, 250 g ai/ha, read-out: Plant response rating, Poinsettia, Wild): 0%

CCn1cc(C(=O)c2ccccc2)c(-c2cc(Cl)cc(Cl)c2)n1 [Compound 31, [3-(3,5-dichlorophenyl)-1-ethyl-1H-pyrazol-4-yl]phenylmethanone]
Crabgrass, Brazil plant response rating ([1]; 62 g ai/ha): 0
Crabgrass, Brazil plant response rating ([1]; 125 g ai/ha): 0
Crabgrass, Brazil plant response rating ([1]; 250 g ai/ha): 0
Crabgrass, Brazil plant response rating ([1]; 500 g ai/ha): 50
Arrowleaf Sida plant response rating ([2]; 62 g ai/ha): 30
Arrowleaf Sida plant response rating ([2]; 125 g ai/ha): 80
Arrowleaf Sida plant response rating ([2]; 250 g ai/ha): 90
Arrowleaf Sida plant response rating ([2]; 500 g ai/ha): 95
pest or weed control at 16 g/ha [2, 12]: 55%
pest or weed control at 31 g/ha [2, 12]: 65%
pest or weed control at 62 g/ha [2, 13]: 80%
pest or weed control at 125 g/ha [2, 14]: 90%
Barnyardgrass plant response rating ([3]; 62 g ai/ha): 0
Barnyardgrass plant response rating ([3]; 125 g ai/ha): 0
Barnyardgrass plant response rating ([3]; 250 g ai/ha): 0
Barnyardgrass plant response rating ([3]; 500 g ai/ha): 0
Corn plant response rating ([4]; 62 g ai/ha): 0
Corn plant response rating ([4]; 125 g ai/ha): 0
Corn plant response rating ([4]; 250 g ai/ha): 0
Corn plant response rating ([4]; 500 g ai/ha): 0
Panicum, Fall plant response rating ([5]; 62 g ai/ha): 0
Panicum, Fall plant response rating ([5]; 125 g ai/ha): 0
pest or weed control at 16 g/ha [6, 15]: 70%
pest or weed control at 31 g/ha ([6]; Bidens pilosa, post-emergence, Postemergence, 31 g ai/ha): 80%
pest or weed control at 62 g/ha ([6]; Bidens pilosa, post-emergence, Postemergence, 62 g ai/ha): 85%
pest or weed control at 125 g/ha [6, 16]: 85%
Beggarticks plant response rating ([6]; 62 g ai/ha): 0
Beggarticks plant response rating ([6]; 125 g ai/ha): 0
Beggarticks plant response rating ([6]; 250 g ai/ha): 0
Beggarticks plant response rating ([6]; 500 g ai/ha): 50
pest or weed control at 62 g/ha [7, 17]: 60%
pest or weed control at 125 g/ha [7, 18]: 75%
Pigweed, Palmer plant response rating ([7]; 62 g ai/ha): 0
Pigweed, Palmer plant response rating ([7]; 125 g ai/ha): 70
Pigweed, Palmer plant response rating ([7]; 250 g ai/ha): 98
Pigweed, Palmer plant response rating ([7]; 500 g ai/ha): 100
Sandbur plant response rating ([8]; 62 g ai/ha): 0
Sandbur plant response rating ([8]; 125 g ai/ha): 0
Sandbur plant response rating ([8]; 250 g ai/ha): 0
Sandbur plant response rating ([8]; 500 g ai/ha): 0
Soybean plant response rating ([9]; 62 g ai/ha): 0
Soybean plant response rating ([9]; 125 g ai/ha): 0
Soybean plant response rating ([9]; 250 g ai/ha): 0
Soybean plant response rating ([9]; 500 g ai/ha): 0
pest or weed control at 31 g/ha [10, 19]: 50%
pest or weed control at 125 g/ha [10, 20]: 60%
Waterhemp plant response rating ([10]; 62 g ai/ha): 80
Waterhemp plant response rating ([10]; 125 g ai/ha): 90
Waterhemp plant response rating ([10]; 250 g ai/ha): 100
Waterhemp plant response rating ([10]; 500 g ai/ha): 100
Poinsettia, Wild plant response rating ([11]; 62 g ai/ha): 0
Poinsettia, Wild plant response rating ([11]; 125 g ai/ha): 0
Poinsettia, Wild plant response rating ([11]; 250 g ai/ha): 0
Poinsettia, Wild plant response rating ([11]; 500 g ai/ha): 0
